In patent US5492896A, “Pseudopeptides having an antiviral action” (Bayer Aktiengesellschaft, priority 1993, dated 1996):
Like-named read-outs stand apart in the source and are kept apart here. Numbered stars: 1 amine (or outer) side, 2 acyl side, 3 side chain; on linkers, the order of the positions; unused ones are H or OH. Square brackets hold non-standard residues; d marks the D form. Peptide text beside a SMILES is read from it. * marks the point of attachment. Tos = Cc1ccc(S(=O)(=O)*)cc1; CO = O=C([*:1])[*:2]

Tests used:
HCMV (Davis strain) = experiment: Anti-HCMV screening test: spread of cytopathogenic effect in HELF cell cultures; assay type: cell-based, human cytomegalovirus; conditions: concentration causing 50% inhibition of the CPE, HELF cells, 6 days
Procedure: (§1) The anti-HCMV action was determined in a screening test system in 96-well microtitre plates with the aid of human embryonal lung fibroblasts (HELF) cell cultures. The influence of the substances on the spread of the cytopathogenic effect was determined in comparison with the reference substance ganciclovir ([…]®-sodium), a clinically approved anti-HCMV chemotherapeutic. The substances are dissolved in DMSO (dimethyl sulphoxide; 50 mM) and investigated on microtitre plates (96-well) in final concentrations of 1000-0.00048 μM (micromolar) in duplicate determinations (4 substances/plate). Toxic and cytostatic actions of the substances are also recorded here. After the appropriate dilutions of the substances (1:2) on the microtitre plate, a suspension of 50-100 HCMV-infected HELF cells and 3×10^4 non-infected HELF cells in Eagle's MEM (minimal essential medium) with 10% foetal calf serum is introduced into each cup and the plates are incubated at 37° C. in a CO2 incubating cabinet for 6 days. After this period, the cell lawn in the substance-free virus controls, starting from 50-100 infectious centres, is completely destroyed by the cytopathogenic effect (CPE) of the HCMV (100% CPE). After staining with neutral red and fixing with formalin/methanol, the plates are evaluated with the aid of a projection microscope (Plaque Viewer). […]

[1] = system: human embryonal lung fibroblasts (HELF); experiment: Anticellular (toxic and cytostatic) action in the anti-HCMV screening test; assay type: cell-based
Procedure: as §1

HIV protease (HIV-1) = target: T1, HIV protease (HIV-1) (Human immunodeficiency virus type 1 group M subtype B, UniProt P04585); experiment: HIV-specific protease enzyme test (synthetic peptide cleavage, RP-HPLC); assay type: biochemical; conditions: 50% inhibition of protease activity; purified HIV protease, synthetic Gag cleavage-site peptide
T1 construct: purified HIV protease was incubated with a synthetic peptide
Procedure: This is documented by an HIV-specific protease enzyme test.
The results of the examples described below were determined by the HIV test system described in the following literature references [compare Hansen, J., Billich, S., Schulze, T., Sukrow, S. and Molling, K. (1988), EMBO Journal, volume 7, No. 6, pages 1785-1791]: purified HIV protease was incubated with a synthetic peptide which imitates a cutting site in the Gag precursor protein and represents an in vivo cleavage site of HIV protease. The cleavage products formed from the synthetic peptide were analysed by reverse phase high performance liquid chromatography (RP-HPLC). The IC50 values stated relate to the substance concentration which causes 50% inhibition of protease activity under the abovementioned test conditions.

For `COC(=O)[C@H](Cc1ccccc1)NC(=O)N[C@@H](CCCNC(=N)NS(=O)(=O)c1ccc(C)cc1)C(=O)N[C@H](C(=O)N[C@@H](C=O)Cc1ccccc1)C(C)C` [Example 4] ({OMe-Phe-CO}-Arg(Tos)-Val-[dF]-aldehyde), which IC50 (HCMV (Davis strain)) is on record?
Its IC50 is 1.95 µM.

And the “CIC50 (μM) HELF” value [1]?
Its value is 62.5 µM.

Which IC50 (HCMV (Davis strain); Human betaherpesvirus 5, 144 h) does the source give for `Nc1nc(O)c2ncn(COC(CO)CO)c2n1` [Namevene ®, ganciclovir] here?
Its IC50 is 2 to 4 µM.

What about the “CIC50 (μM) HELF” value ([1]; maximum concentration which displays no evident anticellular action, HELF cells, 6 days) of the same molecule?
The value was 125 µM.

With `CC(C)[C@H](NC(=O)[C@H](CCCNC(=N)N)NC(=O)N[C@@H](Cc1ccccc1)C(=O)O)C(=O)N[C@H](C=O)Cc1ccccc1` [VIII, (2S)-2-{Nα -[((1S)-1-Carboxy-2-phenyl-ethyl)aminocarbonyl]-S-arginyl-S-valinyl}amino-3-phenyl-propan-1-al] ({Phe-CO}-Arg-Val-Phe-aldehyde) as the molecule, how does the IC50 (HIV protease (HIV-1)) read?
The IC50 was 19 µM.

With `CC(C)[C@H](NC(=O)[C@H](CCCNC(=N)N)NC(=O)N[C@@H](Cc1ccccc1)C(=O)O)C(=O)N[C@@H](C=O)Cc1ccccc1` [IX, (2R)-2-{Nα -[((1S)-1-Carboxy-2-phenyl-ethyl)aminocarbonyl]-S-arginyl-S-valinyl}amino-3-phenyl-propan-1-al] ({Phe-CO}-Arg-Val-[dF]-aldehyde) as the molecule, how does the IC50 (HIV protease (HIV-1)) read?
Its IC50 is 160 µM.
